Each compound was assayed against T1, Recombinant human c-KIT kinase (Homo sapiens, UniProt P10721) (assay: c-KIT Kinase Chemiluminescence Assay (ADP-Glo)). Settings: recombinant human c-KIT 30-40 nM, ATP 50 μM, polyEY substrate, ADP-Glo luminescence.
T1 construct: purchased Promega V4498
T1 sequence (P10721 26-976): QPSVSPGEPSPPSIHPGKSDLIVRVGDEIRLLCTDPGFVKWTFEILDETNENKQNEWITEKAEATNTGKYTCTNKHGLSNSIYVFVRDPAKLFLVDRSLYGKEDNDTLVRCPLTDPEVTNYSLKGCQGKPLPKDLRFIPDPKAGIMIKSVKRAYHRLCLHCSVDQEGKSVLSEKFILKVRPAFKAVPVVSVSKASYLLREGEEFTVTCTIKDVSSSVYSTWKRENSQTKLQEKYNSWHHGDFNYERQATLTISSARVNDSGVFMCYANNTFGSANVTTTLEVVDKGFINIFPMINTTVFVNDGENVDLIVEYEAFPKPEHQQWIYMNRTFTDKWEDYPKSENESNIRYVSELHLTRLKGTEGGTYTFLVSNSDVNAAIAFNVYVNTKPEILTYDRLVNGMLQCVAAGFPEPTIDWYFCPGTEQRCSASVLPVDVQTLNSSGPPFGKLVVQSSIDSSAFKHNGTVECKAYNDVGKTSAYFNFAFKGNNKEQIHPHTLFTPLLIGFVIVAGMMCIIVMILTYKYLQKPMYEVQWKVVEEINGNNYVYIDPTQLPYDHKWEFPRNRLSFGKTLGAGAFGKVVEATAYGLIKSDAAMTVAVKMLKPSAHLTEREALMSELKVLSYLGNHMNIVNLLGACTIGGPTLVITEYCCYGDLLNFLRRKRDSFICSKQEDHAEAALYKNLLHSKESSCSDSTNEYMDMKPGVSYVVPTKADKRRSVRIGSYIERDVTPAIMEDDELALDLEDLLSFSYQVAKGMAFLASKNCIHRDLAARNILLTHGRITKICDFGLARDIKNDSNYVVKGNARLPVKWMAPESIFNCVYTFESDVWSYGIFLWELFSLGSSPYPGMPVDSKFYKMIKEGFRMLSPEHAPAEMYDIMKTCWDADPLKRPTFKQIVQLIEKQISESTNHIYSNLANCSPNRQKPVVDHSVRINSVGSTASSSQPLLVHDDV
Type: biochemical
From the text: Staurosporine (AM-2282) and Imatinib (STI571) were purchased from Selleck Chemicals LLC (Houston, TX). The c-KIT reference compound THB001 (EP-053504) was synthesized by Enanta Pharmaceuticals, Inc. (Watertown, MA). The c-KIT Kinase Enzyme System (V4498) and ADP-Glo™ Kinase Assay kit (V6930) were purchased from Promega (Madison, WI). DMSO (D2650) was purchased from Sigma-Aldrich (Burlington, MA). ECHO-650 acoustic liquid handling system (67492212) and 384-well LDV ECHO source plates (LP-0200) were purchased from Labcyte, Inc (San Jose, CA). Envision Multimode Plate Reader (2104/464466) and ProxiPlate-384 Plus White 384-shallow well microplates (6008280) were purchased from PerkinElmer (Waltham, MA).
1. c-KIT Kinase Chemiluminescence Assay:
IC50 determination. Test compounds were dispersed into a 384-well low volume while ProxiPlate microplate from a DMSO solution using an ECHO 650 acoustic dispenser to generate a 11-point, 3.162-fold dilution, concentration curve starting at 10 μM in duplicate. Kinase Reaction: The kinase assay was based on the recommended protocol by c-KIT Kinase Enzyme System from Promega. Recombinant human c-KIT kinase in 3 μL of assay buffer (40 mM Tris pH 7.5, 20 mM MgCl2, 0.1 mg/mL BSA and 50 μM DTT) was added to the test or high control wells and 3 μL of assay buffer was added to the low control wells. The microplate was centrifuged at 800 rotations per minute (rpm) for 60 s and incubated at room temperature (RT) for 30 min. Next, 2 μL of buffered ATP and polyEY substrate solution was added to all wells. The microplate was centrifuged at 800 rpm for 60 s and incubated at RT for 2 h. The final assay contained c-KIT (30-40 nM), ATP (50 μM), polyEY substrate (0.2 μg/μL), test compounds (0-10 μM) and DMSO (1.7%) in 5 μL assay buffer. ADP detection with ADP-Glo™ Kinase Assay: After the kinase reaction incubation, 5 μL of ADP-Glo™ reagent was added to all wells. The microplate was centrifuged at 800 rpm for 60 s and incubated at RT for 40 min. Ten microliter (10 μL) of Kinase Detection Reagent (Luciferin-Luciferase system) was then added to all wells. The microplate was centrifuged at 800 rpm for 60 s and incubated at RT for 60 min. Kinase activity was measured as increase in luminescence at RT in an Envision plate reader equipped with 560 nm filters and operating in endpoint mode.
Data Analysis: Endpoint chemiluminescence from high and low control wells were used to calculate normalized c-KIT activity at various concentrations of test compounds. The normalized activities were fitted to inhibitor-versus-normalized response fit in GraphPad Prism 7 to determine half-maximal inhibitory concentration (IC50) and hill coefficient values (H).
c-KIT activity (%)=100/(1+I^H/IC50^H). Where I is the inhibitor concentration and H is the Hill coefficient. IC50 ranges are reported as follows: A<100 nM; B 0.1-1 μM; C>1 μM.
`Cc1ccc(-c2nc3n(n2)CCN(C(=O)[C@H]2[C@@H]4CC(F)(F)C[C@@H]42)C3)cc1NC(=O)c1cnc2ccccn12` [Example 6-20] was tested, and the IC50 was > 1000 nM.
With `Cc1ccc(-c2nc3n(n2)C[C@H](C(F)(F)F)CC3)cc1NC(=O)c1cnc2ccccn12` [Example 6-21] the IC50 was < 100 nM.
For `Cc1ccc(-c2nc3cc(C4CC4)ccn3n2)cc1NC(=O)c1cnc2ccccn12` [Example 6-23], the IC50 was < 100 nM.
For `Cc1ccc(-c2nc3ccc(C4CC4)cn3n2)cc1NC(=O)c1cnc2ccccn12` [Example 6-24], the IC50 was < 100 nM.
In the case of `Cc1ccc(-c2nc(C3CC3)n(C)n2)cc1NC(=O)c1cnc2ccccn12` [Example 6], the IC50 is reported as 100 to 1000 nM.
`Cc1ccc(-c2cn(C3CC(F)(F)C3)nn2)cc1NC(=O)c1cnc2ccccn12` [Example 7] was tested, and the IC50 was < 100 nM.
For `Cc1ccc(-n2nnc(C3CC(F)(F)C3)n2)cc1NC(=O)c1cnc2ccccn12` [Example 8], the IC50 was < 100 nM.
Work on `Cc1ccc(-n2nnc(-c3ccc(F)cc3)n2)cc1NC(=O)c1cnc2ccccn12` [Example 9-1] yielded an IC50 of 100 to 1000 nM.
Work on `Cc1ccc(-n2nnc(-c3cccc(F)c3)n2)cc1NC(=O)c1cnc2ccccn12` [Example 9-2] yielded an IC50 of 100 to 1000 nM.
`Cc1ccc(-c2coc(C3CC(F)(F)C3)n2)cc1NC(=O)c1cnc2ccccn12` [Example 10] was tested, and the IC50 was < 100 nM.
Work on `Cc1ccc(-c2coc([C@H]3C[C@@H]3F)n2)cc1NC(=O)c1cnc2ccccn12` [Example 11-1] yielded an IC50 of 100 to 1000 nM.
`Cc1ccc(-c2nc3cc(F)ccc3o2)cc1NC(=O)c1cnc2ccccn12` [Example 11-2] was tested, and the IC50 was < 100 nM.
`Cc1ccc(-c2nc3ccccc3o2)cc1NC(=O)c1cnc2ccccn12` [Example 11-3] was tested, and the IC50 was 100 to 1000 nM.
For `Cc1ccc(-c2nc3ccccc3s2)cc1NC(=O)c1cnc2ccccn12` [Example 11-4], the IC50 was < 100 nM.
With `Cc1ccc(-c2nc3ccc(F)cc3o2)cc1NC(=O)c1cnc2ccccn12` [Example 11-5] the IC50 was 100 to 1000 nM.
For `Cc1ccc(-c2nc3ccccc3[nH]2)cc1NC(=O)c1cnc2ccccn12` [Example 11-6], the IC50 was < 100 nM.
For `Cc1ccc(-c2nc3ccccc3n2C)cc1NC(=O)c1cnc2ccccn12` [Example 11-7], the IC50 was > 1000 nM.
In the case of `Cc1ccc(-c2nc3ccc(F)cc3[nH]2)cc1NC(=O)c1cnc2ccccn12` [Example 11-8], the IC50 is reported as < 100 nM.
For `Cc1ccc(-c2nc3ccc(C(F)(F)F)cc3[nH]2)cc1NC(=O)c1cnc2ccccn12` [Example 11-9], the IC50 was < 100 nM.
For `Cc1ccc(-c2cnn(C3CC(F)(F)C3)n2)cc1NC(=O)c1cnc2ccccn12` [Example 11-10], the IC50 was < 100 nM.
For `Cc1ccc(-c2ncc(C3CC(F)(F)C3)n2COCC[Si](C)(C)C)cc1NC(=O)c1cnc2ccccn12` [Example 11-11], the IC50 was > 1000 nM.
In the case of `Cc1ccc(-n2cc(C3CC(F)(F)C3)nn2)cc1NC(=O)c1cnc2ccccn12` [Example 11-12], the IC50 is reported as < 100 nM.
In the case of `Cc1ccc(-n2ncc3ccccc32)cc1NC(=O)c1cnc2ccccn12` [Example 11-13], the IC50 is reported as > 1000 nM.
Compound `Cc1ccc(-c2c[nH]c(C3CC(F)(F)C3)n2)cc1NC(=O)c1cnc2ccccn12` [Example 11] has an IC50 of 100 to 1000 nM.

What follows are compounds tested on M-07e cells which endogenously express human c-KIT (assay: M-07e Cellular Assay (SCF-mediated cell proliferation, CellTiter Glo)). Settings: M-07e, 72 h, read-out: M-07e EC50.
Type: cell-based
Method: 2. M-07e Cellular Assay M-07e cells (Creative Bioarray, CSC-CO249) which endogenously express human c-KIT were used to evaluate the effect of compounds on stem cell factor (SCF)-mediated cell proliferation. M-07e cells were cultured in growth media (RPMI+10% FBS+1% penicillin/streptomycin+10 ng/mL GM-CSF) at 5E5-1.5E6 cells/mL, replenishing media every 3-4 days. 1.5E4 cells were seeded per well in 384 well tissue culture treated plates in 20 μL assay media (RPMI+10% FBS+1% penicillin/streptomycin) without growth factor stimulation and incubated at 37° C. in a CO2 humidity-controlled incubator. Twenty-four hours later, three-fold serially diluted test compounds in media containing SCF (at the previously determined EC90) were added to the plated M-07e cells and incubated for an additional 72 hours. Cell viability was determined by adding 25 μL CellTiter Glo (Promega) to the cells and the luminescence was measured using a Perkin Elmer Envision plate reader. The EC50 was determined using GraphPad Prism. […] EC50 ranges are reported as follows: […]
`Cc1ccc(-n2ncc3ccccc32)cc1NC(=O)c1cnc2ccccn12` [Example 11-13] gave an EC50 of 100 to 1000 nM.

Same assay, conditions: SCF (EC90)-stimulated M-07e cell proliferation, 72 hours, CellTiter Glo, read-out: M-07e EC50
`Cc1ccc(-c2nc3n(n2)C[C@H](C(F)(F)F)CC3)cc1NC(=O)c1cnc2ccccn12` [Example 6-21] was tested, and the EC50 was < 100 nM.
In the case of `Cc1ccc(-c2nc3cc(C4CC4)ccn3n2)cc1NC(=O)c1cnc2ccccn12` [Example 6-23], the EC50 is reported as < 100 nM.
In the case of `Cc1ccc(-c2nc3ccc(C4CC4)cn3n2)cc1NC(=O)c1cnc2ccccn12` [Example 6-24], the EC50 is reported as < 100 nM.
`Cc1ccc(-c2nc(C3CC3)n(C)n2)cc1NC(=O)c1cnc2ccccn12` [Example 6] showed an EC50 of 100 to 1000 nM.
With `Cc1ccc(-c2cn(C3CC(F)(F)C3)nn2)cc1NC(=O)c1cnc2ccccn12` [Example 7] the EC50 was < 100 nM.
In the case of `Cc1ccc(-n2nnc(C3CC(F)(F)C3)n2)cc1NC(=O)c1cnc2ccccn12` [Example 8], the EC50 is reported as < 100 nM.
Work on `Cc1ccc(-n2nnc(-c3ccc(F)cc3)n2)cc1NC(=O)c1cnc2ccccn12` [Example 9-1] yielded an EC50 of 100 to 1000 nM.
`Cc1ccc(-n2nnc(-c3cccc(F)c3)n2)cc1NC(=O)c1cnc2ccccn12` [Example 9-2] gave an EC50 of 100 to 1000 nM.
For `Cc1ccc(-c2coc(C3CC(F)(F)C3)n2)cc1NC(=O)c1cnc2ccccn12` [Example 10], the EC50 was < 100 nM.
In the case of `Cc1ccc(-c2coc([C@H]3C[C@@H]3F)n2)cc1NC(=O)c1cnc2ccccn12` [Example 11-1], the EC50 is reported as < 100 nM.
`Cc1ccc(-c2nc3cc(F)ccc3o2)cc1NC(=O)c1cnc2ccccn12` [Example 11-2] was tested, and the EC50 was < 100 nM.
With `Cc1ccc(-c2nc3ccccc3o2)cc1NC(=O)c1cnc2ccccn12` [Example 11-3] the EC50 was < 100 nM.
Work on `Cc1ccc(-c2nc3ccccc3s2)cc1NC(=O)c1cnc2ccccn12` [Example 11-4] yielded an EC50 of 100 to 1000 nM.
With `Cc1ccc(-c2nc3ccc(F)cc3o2)cc1NC(=O)c1cnc2ccccn12` [Example 11-5] the EC50 was 100 to 1000 nM.
With `Cc1ccc(-c2nc3ccccc3[nH]2)cc1NC(=O)c1cnc2ccccn12` [Example 11-6] the EC50 was < 100 nM.
`Cc1ccc(-c2nc3ccccc3n2C)cc1NC(=O)c1cnc2ccccn12` [Example 11-7] gave an EC50 of 100 to 1000 nM.
With `Cc1ccc(-c2nc3ccc(F)cc3[nH]2)cc1NC(=O)c1cnc2ccccn12` [Example 11-8] the EC50 was < 100 nM.
With `Cc1ccc(-c2nc3ccc(C(F)(F)F)cc3[nH]2)cc1NC(=O)c1cnc2ccccn12` [Example 11-9] the EC50 was < 100 nM.
In the case of `Cc1ccc(-c2cnn(C3CC(F)(F)C3)n2)cc1NC(=O)c1cnc2ccccn12` [Example 11-10], the EC50 is reported as < 100 nM.
`Cc1ccc(-n2cc(C3CC(F)(F)C3)nn2)cc1NC(=O)c1cnc2ccccn12` [Example 11-12] was tested, and the EC50 was < 100 nM.
Work on `Cc1ccc(-c2c[nH]c(C3CC(F)(F)C3)n2)cc1NC(=O)c1cnc2ccccn12` [Example 11] yielded an EC50 of 100 to 1000 nM.
